This note sets out measurements from patent US8546391B2, “Thiadiazole and oxadiazole derivatives, preparation thereof and therapeutic use thereof” (Sanofi, priority 2009, dated 2013).

The subject of series [1] is triglyceride biosynthesis. Kind of series: in vitro inhibitory activity on triglyceride biosynthesis, cell test ([14C] glycerol incorporation in Chang liver cells). In kind it is cell-based. The note with it: compounds incubated 30 minutes, then [14C] glycerol incorporation for 6 hours, read-out: inhibitory activity on triglyceride biosynthesis, concentration that inhibits 50% of the activity. Here is the method:
These trials consisted in measuring the in vitro inhibitory activity of the compounds of the invention on a cell test.
Chang liver cells at 80% confluence are detached with trypsin-EDTA, 4 ml per 175 cm^2 flask. After centrifugation at 1300×g for 5 minutes, the cell pellet is washed once with PBS and then resuspended in whole medium. The number of cells and their viability are determined on Mallassez cells via the exclusion method with trypan blue.
150 000 cells are inoculated per well into a 24-well plate for a minimum of 3 hours in DMEM medium 4.5 g/l of glucose supplemented with 10% FCS and with antibiotics, and are maintained at 37° C. in an incubator with CO2 (5%).
After 3 hours, the cells have adhered, the medium is removed and replaced overnight with DMEM medium 4.5 g/l of glucose with 2% of BSA/oleate.
After culturing for 18 hours without serum, the test compounds are incubated for 30 minutes ([…], 30, 100, 300 and 1000 nM) with the cells, followed by addition of [^14C] glycerol (0.4 μCi/ml/well) for an incorporation time of 6 hours.
The supernatant is drawn off and the cells are recovered by treatment with trypsin-EDTA, 100 μl/well, for 5 minutes at 37° C. This cell suspension is then recovered in an Eppendorf tube and is washed with twice 500 μl of PBS. The centrifugation at 1300×g for 5 minutes allows recovery of the cell pellets, which may be frozen at −20° C. In order to extract the lipids from the cell pellet, 400 μl of a methanol/dichloromethane/trifluoroacetic acid mixture (50/50/0.1%) is used to resuspend the cells. Next, the cell membranes are destroyed by sonication on a water bath, for 30 minutes. The samples are filtered through a 0.45 μm filtered and then injected onto a C18 HPLC column of 4.6×75 mm, 3 μm with a mobile phase of 5% (H2O+0.1% TFA), 70% methanol, 25% dichloromethane, with a flow rate of 1.5 ml/minute. The radioactivity is measured using a Flo One C625TR machine (Perkin-Elmer).
The inhibitory activity on triglyceride biosynthesis is given by the concentration that inhibits 50% of the activity.

Each structure is given as a SMILES string.

For the molecule `O=C(O)C[C@H]1CC[C@H](c2ccc(C(=O)Nc3nnc(COC4CCCC4)s3)cc2)CC1` [Compound 37, trans-{4-[4-(5-cyclopentyloxymethyl[1.3.4]thiadiazol-2-ylcarbamoyl)-phenyl]cyclohexyl}acetic acid], the IC50 in series [1] was 18 nM.

In the case of `O=C(Nc1nnc(Cc2cccc(Cl)c2)s1)c1ccc(O[C@H]2CC[C@@H](C(=O)O)CC2)nc1` [Compound 63, cis-4-{5-[5-(3-chlorobenzyl)[1.3.4]thiadiazol-2-ylcarbamoyl]pyridin-2-yloxy}cyclohexanecarboxylic acid], the IC50 in series [1] was found to be 85 nM.

Turning to `O=C(O)C[C@H]1CC[C@H](c2ccc(C(=O)Nc3nnc(COCC4CCCC4)s3)cc2)CC1` [Compound 40, trans-{4-[4-(5-cyclopentylmethoxymethyl[1,3,4]thiadiazol-2-ylcarbamoyl)phenyl]cyclohexyl}acetic acid], the melting point turned out to be 241 °C. In addition, the IC50 in series [1] amounted to 51 nM.

For `O=C(Nc1nnc(Cc2ccccc2)s1)c1ccc(N[C@H]2CC[C@@H](C(=O)O)CC2)cc1` [Compound 68, cis-4-[4-(5-benzyl[1.3.4]thiadiazol-2-ylcarbamoyl)phenylamino]cyclohexanecarboxylic acid], the IC50 in series [1] was 271 nM.
